Key:
Assay in all cases: relative viability (nuclei count vs DMSO), 5 days (fraction); higher = more cells survive
[1] = compound: C1=CC=C2C(=C1)N=C(S2)C(C#N)C3=NC(=NC=C3)NCCC4=CN=CC=C4 + COc1cccc2cc(-c3nc([C@H]4CC[C@H](C(=O)O)CC4)n4ncnc(N)c34)[nH]c12 [OSI-027] (partner 0.5 µM)
Summary of the method: (§1)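 The day after seeding in 1536-well plates, lung cancer cell lines were treated by pin tool with a single drug, or with a fixed anchor-drug dose together with five library-drug doses (not always all listed) in √10 steps. After 5 days, a combined fix-and-stain solution (final 0.05% Triton X-100, 1% formaldehyde, 1 ug/ml Hoechst) was added. Nuclei counted on 4× images gave relative viability as treated counts over vehicle counts, reported as the median of duplicate plates.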

CUDC-101 + Pemetrexed = compound: C#Cc1cccc(Nc2ncnc3cc(OC)c(OCCCCCCC(=O)NO)cc23)c1 [CUDC-101] + Nc1nc2[nH]cc(CCc3ccc(C(=O)N[C@@H](CCC(=O)O)C(=O)O)cc3)c2c(=O)[nH]1 [Pemetrexed] (partner 0.2 µM)
Summary of the method: as §1

Vandetanib + Tozasertib = compound: COc1cc2/c(=N/c3ccc(Br)cc3F)nc[nH]c2cc1OCC1CCN(C)CC1 [Vandetanib] + Cc1cc(Nc2cc(N3CCN(C)CC3)nc(Sc3ccc(NC(=O)C4CC4)cc3)n2)n[nH]1 [Tozasertib] (partner 0.1 µM)
Summary of the method: as §1

[2] = compound: C1=CC=C2C(=C1)N=C(S2)C(C#N)C3=NC(=NC=C3)NCCC4=CN=CC=C4 + Nc1nc2[nH]cc(CCc3ccc(C(=O)N[C@@H](CCC(=O)O)C(=O)O)cc3)c2c(=O)[nH]1 [Pemetrexed] (partner 0.2 µM)
Summary of the method: as §1

NCI-H2126
relative viability ([1]; first compound 0.005 µM): 0.739
relative viability ([1]; first compound 0.01581 µM): 0.676
relative viability ([1]; first compound 0.05 µM): 0.732
relative viability ([1]; first compound 0.1581 µM): 0.705
relative viability ([1]; first compound 0.5 µM): 0.677
relative viability (CUDC-101 + Pemetrexed; first compound 0.01 µM): 0.635
relative viability (CUDC-101 + Pemetrexed; first compound 0.03162 µM): 0.659
relative viability (CUDC-101 + Pemetrexed; first compound 0.1 µM): 0.761
relative viability (CUDC-101 + Pemetrexed; first compound 0.3162 µM): 0.687
relative viability (CUDC-101 + Pemetrexed; first compound 1 µM): 0.529
relative viability (Vandetanib + Tozasertib; first compound 0.02 µM): 0.814
relative viability (Vandetanib + Tozasertib; first compound 0.06325 µM): 0.8
relative viability (Vandetanib + Tozasertib; first compound 0.2 µM): 0.795
relative viability (Vandetanib + Tozasertib; first compound 0.6325 µM): 0.745
relative viability (Vandetanib + Tozasertib; first compound 2 µM): 0.657
relative viability ([2]; first compound 0.005 µM): 0.577
relative viability ([2]; first compound 0.01581 µM): 0.73
relative viability ([2]; first compound 0.05 µM): 0.652
relative viability ([2]; first compound 0.1581 µM): 0.69
relative viability ([2]; first compound 0.5 µM): 0.726

NCI-H650
relative viability ([1]; first compound 0.005 µM): 0.521
relative viability ([1]; first compound 0.05 µM): 0.544
relative viability ([1]; first compound 0.1581 µM): 0.475
relative viability ([1]; first compound 0.5 µM): 0.486
relative viability (CUDC-101 + Pemetrexed; first compound 0.01 µM): 1.02
relative viability (CUDC-101 + Pemetrexed; first compound 0.03162 µM): 0.916
relative viability (CUDC-101 + Pemetrexed; first compound 0.1 µM): 1
relative viability (CUDC-101 + Pemetrexed; first compound 0.3162 µM): 0.904
relative viability (CUDC-101 + Pemetrexed; first compound 1 µM): 0.803
relative viability (Vandetanib + Tozasertib; first compound 0.02 µM): 0.732
relative viability (Vandetanib + Tozasertib; first compound 0.06325 µM): 0.69
relative viability (Vandetanib + Tozasertib; first compound 0.6325 µM): 0.809
relative viability (Vandetanib + Tozasertib; first compound 2 µM): 0.723
relative viability ([2]; first compound 0.005 µM): 0.938
relative viability ([2]; first compound 0.01581 µM): 0.879
relative viability ([2]; first compound 0.05 µM): 0.905
relative viability ([2]; first compound 0.1581 µM): 0.924
relative viability ([2]; first compound 0.5 µM): 1.14

201T
relative viability ([1]; first compound 0.005 µM): 0.935
relative viability ([1]; first compound 0.01581 µM): 0.696
relative viability ([1]; first compound 0.05 µM): 0.7
relative viability ([1]; first compound 0.1581 µM): 0.833
relative viability ([1]; first compound 0.5 µM): 0.779
relative viability (CUDC-101 + Pemetrexed; first compound 0.01 µM): 0.281
relative viability (CUDC-101 + Pemetrexed; first compound 0.03162 µM): 0.387
relative viability (CUDC-101 + Pemetrexed; first compound 0.1 µM): 0.368
relative viability (CUDC-101 + Pemetrexed; first compound 0.3162 µM): 0.356
relative viability (CUDC-101 + Pemetrexed; first compound 1 µM): 0.29
relative viability (Vandetanib + Tozasertib; first compound 0.02 µM): 0.927
relative viability (Vandetanib + Tozasertib; first compound 0.06325 µM): 0.992
relative viability (Vandetanib + Tozasertib; first compound 0.2 µM): 1.01
relative viability (Vandetanib + Tozasertib; first compound 0.6325 µM): 0.92
relative viability (Vandetanib + Tozasertib; first compound 2 µM): 0.938
relative viability ([2]; first compound 0.005 µM): 0.348
relative viability ([2]; first compound 0.01581 µM): 0.337
relative viability ([2]; first compound 0.05 µM): 0.349
relative viability ([2]; first compound 0.1581 µM): 0.313
relative viability ([2]; first compound 0.5 µM): 0.357

LU99A
relative viability ([1]; first compound 0.005 µM): 0.269
relative viability ([1]; first compound 0.01581 µM): 0.278
relative viability ([1]; first compound 0.05 µM): 0.297
relative viability ([1]; first compound 0.1581 µM): 0.323
relative viability ([1]; first compound 0.5 µM): 0.3
relative viability (CUDC-101 + Pemetrexed; first compound 0.01 µM): 0.205
relative viability (CUDC-101 + Pemetrexed; first compound 0.03162 µM): 0.197
relative viability (CUDC-101 + Pemetrexed; first compound 0.1 µM): 0.179
relative viability (CUDC-101 + Pemetrexed; first compound 0.3162 µM): 0.18
relative viability (CUDC-101 + Pemetrexed; first compound 1 µM): 0.176
relative viability (Vandetanib + Tozasertib; first compound 0.02 µM): 0.253
relative viability (Vandetanib + Tozasertib; first compound 0.06325 µM): 0.33
relative viability (Vandetanib + Tozasertib; first compound 0.2 µM): 0.251
relative viability (Vandetanib + Tozasertib; first compound 0.6325 µM): 0.261
relative viability (Vandetanib + Tozasertib; first compound 2 µM): 0.3
relative viability ([2]; first compound 0.005 µM): 0.215
relative viability ([2]; first compound 0.01581 µM): 0.214
relative viability ([2]; first compound 0.1581 µM): 0.193
relative viability ([2]; first compound 0.5 µM): 0.19

NCI-H647
relative viability ([1]; first compound 0.005 µM): 0.638
relative viability ([1]; first compound 0.01581 µM): 0.585
relative viability ([1]; first compound 0.05 µM): 0.491
relative viability ([1]; first compound 0.1581 µM): 0.756
relative viability ([1]; first compound 0.5 µM): 0.527
relative viability (CUDC-101 + Pemetrexed; first compound 0.01 µM): 0.177
relative viability (CUDC-101 + Pemetrexed; first compound 0.03162 µM): 0.167
relative viability (CUDC-101 + Pemetrexed; first compound 0.1 µM): 0.199
relative viability (CUDC-101 + Pemetrexed; first compound 0.3162 µM): 0.194
relative viability (CUDC-101 + Pemetrexed; first compound 1 µM): 0.165
relative viability (Vandetanib + Tozasertib; first compound 0.02 µM): 0.265
relative viability (Vandetanib + Tozasertib; first compound 0.06325 µM): 0.2
relative viability (Vandetanib + Tozasertib; first compound 0.2 µM): 0.141
relative viability (Vandetanib + Tozasertib; first compound 0.6325 µM): 0.221
relative viability (Vandetanib + Tozasertib; first compound 2 µM): 0.255
relative viability ([2]; first compound 0.005 µM): 0.165
relative viability ([2]; first compound 0.01581 µM): 0.175
relative viability ([2]; first compound 0.05 µM): 0.182
relative viability ([2]; first compound 0.1581 µM): 0.179
relative viability ([2]; first compound 0.5 µM): 0.19

LC-2-ad
relative viability ([1]; first compound 0.005 µM): 0.724
relative viability ([1]; first compound 0.01581 µM): 0.803
relative viability ([1]; first compound 0.05 µM): 0.912
relative viability ([1]; first compound 0.1581 µM): 0.875
relative viability ([1]; first compound 0.5 µM): 0.695
relative viability (CUDC-101 + Pemetrexed; first compound 0.01 µM): 0.247
relative viability (CUDC-101 + Pemetrexed; first compound 0.03162 µM): 0.271
relative viability (CUDC-101 + Pemetrexed; first compound 0.1 µM): 0.284
relative viability (CUDC-101 + Pemetrexed; first compound 0.3162 µM): 0.26
relative viability (CUDC-101 + Pemetrexed; first compound 1 µM): 0.284
relative viability (Vandetanib + Tozasertib; first compound 0.02 µM): 0.471
relative viability (Vandetanib + Tozasertib; first compound 0.06325 µM): 0.462
relative viability (Vandetanib + Tozasertib; first compound 0.2 µM): 0.467
relative viability (Vandetanib + Tozasertib; first compound 0.6325 µM): 0.45
relative viability (Vandetanib + Tozasertib; first compound 2 µM): 0.357
relative viability ([2]; first compound 0.005 µM): 0.259
relative viability ([2]; first compound 0.01581 µM): 0.328
relative viability ([2]; first compound 0.05 µM): 0.293
relative viability ([2]; first compound 0.1581 µM): 0.271
relative viability ([2]; first compound 0.5 µM): 0.278

LK-2
relative viability ([1]; first compound 0.005 µM): 0.2
relative viability ([1]; first compound 0.01581 µM): 0.187
relative viability ([1]; first compound 0.05 µM): 0.201
relative viability ([1]; first compound 0.1581 µM): 0.189
relative viability ([1]; first compound 0.5 µM): 0.195
relative viability (CUDC-101 + Pemetrexed; first compound 0.01 µM): 0.255
relative viability (CUDC-101 + Pemetrexed; first compound 0.03162 µM): 0.28
relative viability (CUDC-101 + Pemetrexed; first compound 0.1 µM): 0.245
relative viability (CUDC-101 + Pemetrexed; first compound 0.3162 µM): 0.207
relative viability (CUDC-101 + Pemetrexed; first compound 1 µM): 0.133
relative viability (Vandetanib + Tozasertib; first compound 0.02 µM): 0.18
relative viability (Vandetanib + Tozasertib; first compound 0.06325 µM): 0.165
relative viability (Vandetanib + Tozasertib; first compound 0.2 µM): 0.195
relative viability (Vandetanib + Tozasertib; first compound 0.6325 µM): 0.182
relative viability (Vandetanib + Tozasertib; first compound 2 µM): 0.172
relative viability ([2]; first compound 0.005 µM): 0.237
relative viability ([2]; first compound 0.01581 µM): 0.27
relative viability ([2]; first compound 0.05 µM): 0.295
relative viability ([2]; first compound 0.1581 µM): 0.325
relative viability ([2]; first compound 0.5 µM): 0.281

NCI-H520
relative viability ([1]; first compound 0.005 µM): 0.199
relative viability ([1]; first compound 0.01581 µM): 0.261
relative viability ([1]; first compound 0.05 µM): 0.222
relative viability ([1]; first compound 0.1581 µM): 0.32
relative viability ([1]; first compound 0.5 µM): 0.272
relative viability (CUDC-101 + Pemetrexed; first compound 0.01 µM): 0.711
relative viability (CUDC-101 + Pemetrexed; first compound 0.03162 µM): 0.755
relative viability (CUDC-101 + Pemetrexed; first compound 0.1 µM): 0.774
relative viability (CUDC-101 + Pemetrexed; first compound 0.3162 µM): 0.608
relative viability (CUDC-101 + Pemetrexed; first compound 1 µM): 0.342
relative viability (Vandetanib + Tozasertib; first compound 0.02 µM): 0.437
relative viability (Vandetanib + Tozasertib; first compound 0.06325 µM): 0.414
relative viability (Vandetanib + Tozasertib; first compound 0.2 µM): 0.482
relative viability (Vandetanib + Tozasertib; first compound 0.6325 µM): 0.432
relative viability (Vandetanib + Tozasertib; first compound 2 µM): 0.501
relative viability ([2]; first compound 0.005 µM): 0.528
relative viability ([2]; first compound 0.01581 µM): 0.652
relative viability ([2]; first compound 0.05 µM): 0.784
relative viability ([2]; first compound 0.1581 µM): 0.834
relative viability ([2]; first compound 0.5 µM): 0.818

NCI-H1975
relative viability ([1]; first compound 0.005 µM): 0.511
relative viability ([1]; first compound 0.01581 µM): 0.819
relative viability ([1]; first compound 0.05 µM): 0.613
relative viability ([1]; first compound 0.1581 µM): 0.811
relative viability ([1]; first compound 0.5 µM): 0.283
relative viability (CUDC-101 + Pemetrexed; first compound 0.01 µM): 0.27
relative viability (CUDC-101 + Pemetrexed; first compound 0.03162 µM): 0.283
relative viability (CUDC-101 + Pemetrexed; first compound 0.1 µM): 0.296
relative viability (CUDC-101 + Pemetrexed; first compound 0.3162 µM): 0.277
relative viability (CUDC-101 + Pemetrexed; first compound 1 µM): 0.313
relative viability (Vandetanib + Tozasertib; first compound 0.02 µM): 0.771
relative viability (Vandetanib + Tozasertib; first compound 0.06325 µM): 0.714
relative viability (Vandetanib + Tozasertib; first compound 0.2 µM): 0.0829
relative viability (Vandetanib + Tozasertib; first compound 0.6325 µM): 0.685
relative viability (Vandetanib + Tozasertib; first compound 2 µM): 0.74
relative viability ([2]; first compound 0.005 µM): 0.286
relative viability ([2]; first compound 0.01581 µM): 0.303
relative viability ([2]; first compound 0.05 µM): 0.295
relative viability ([2]; first compound 0.1581 µM): 0.331
relative viability ([2]; first compound 0.5 µM): 0.26

From the supplement of paper PMC10307832
